{"source": "patent US20230226087A1", "about": "“PHOSPHOLIPIDS AND PHOSPHOLIPID METABOLITES FOR TREATING VIRAL AND BACTERIAL PNEUMONIA AND SEPSIS” (ANDREAS HETTICH GMBH & CO. KG, priority 2020, published 2023)", "key": {"[1]": {"tested_on": "plasma LysoPC level", "assay": "Change of plasma LysoPC level after oral ingestion in a fasted healthy subject (HPTLC assay of LysoPC)", "conditions": "600 mg alpha-GPC", "procedure": "(§1) LysoPC from plasma, serum or blood was extracted in one step by a newly developed method and subsequently assayed by using HPTLC (high performance thin layer chromatography).\n(§2) The extraction of 50 μl of sample each was effected using salt-assisted extraction. For this purpose, a ceramic sphere (3.4 mm, ceramic) was charged in a 2 ml twist-top vial, and then 50 μl of distilled water, 50 μl of sample, 192 μl of concentrated ammonium acetate solution, and 300 μl of acetonitrile/1-pentanol (2.5:1 v/v) were added. After closing, the vial is intensively shaken centrifugally using dual centrifugation (ZentriMix 380 R, from the company Hettich, Tuttlingen, Germany) at 2000 rpm and 20° C. for 4 min. Subsequently, the vials are centrifuged at 16,000 rpm for 10 min. From the upper phase, 200 μl is removed, transferred to a crimp-top vial with a microinsert, crimped, and sent to HPTLC.\n(§3) For the determination of the LysoPC concentrations using HPTLC, five LysoPC standards (16, 40, 80, 120 and 160 μM LysoPC in acetonitrile/1-pentanol (2.5:1 v/v.) and up to 12 sample extracts were applied to a 20×10 cm silica gel plate using the automated applying device ATS4 (CAMAG, Switzerland). The volume applied is 6 μl each.\n(§4) After the application and after a dwell time of five minutes to ensure uniform evaporation of the solvent, the plate is placed into a preconditioned DC chamber filled with 35 ml of chloroform/methanol/water (65:35:4 v/v) and 200 μl of 25% ammonia solution for 20 min. Within this period, a travelling distance of about 9 cm is reached. […] After cooling to room temperature again, the optical density of the LysoPC bands (Rf about 0.1) is determined using the evaluation unit (TLC Visualizer 2, CAMAG, Switzerland), and the LysoPC concentrations were evaluated by comparing with the calibration substances using the HPTLC software “visionCATS” (Camag, Switzerland). If the LysoPC value is determined, not directly from plasma, but from whole blood, then the value needs to be corrected by the respective hematocrit value and by a factor of 1.3. […]"}, "[2]": {"tested_on": "plasma LysoPC level", "conditions": "human, in vivo", "procedure": "as §1, §2, §3, §4"}, "[3]": {"tested_on": "sepsis models", "conditions": "mice, 25 mg/kg LysoPC i.p., cited from earlier work"}, "[4]": {"tested_on": "septic shock (Gram positive and Gram negative)", "conditions": "rat, cited from earlier work"}, "[5]": {"tested_on": "production of antigen-specific antibodies", "conditions": "mice, administered simultaneously with various antigens; cited from earlier work"}, "[6]": {"assay": "Assaying the total amount of LysoPC in the body (distribution between plasma and deeper compartments)", "format": "in vivo, human", "experimental": "To the therapeutic approach for the treatment of pneumonias of different origins and of sepsis as described herein, the determination of the total amount of LysoPC in the body is essential. The latter could be determined by determining the LysoPC concentration in the plasma, which is in equilibrium with the deeper compartments. To this end, one subject was administered, on the one hand, a high amount of phospholipid from egg (Example 1 (Determination of Plasma LysoPC) and Example 2). The plasma volume was calculated, the increase of the LysoPC concentration was determined, and the plasma LysoPC level accompanying this concentration change was calculated. This LysoPC amount and its ratio to the amount taken up yields the distribution of the LysoPC equivalent taken up between the plasma and the deeper compartments, from which the total LysoPC amount in the body can be calculated. It was considered that 100% of the phospholipid is taken up as LysoPC.\nIn another experiment, a subject was administered a high amount (25 g) of pure triglyceride (Example 3). The plasma volume was calculated. The lowering of the LysoPC concentration because of the consumption of LysoPC for producing PC for the biosynthesis of chylomicrons was determined (One chylomicron contains about 5-10% PC as a ratio to the amount of triglyceride). The amount of plasma LysoPC involved in this concentration change was calculated. This amount of LysoPC and its ratio to the amount taken up yields the distribution of the LysoPC equivalent taken up between the plasma and the deeper compartments, from which the total LysoPC amount in the body can be calculated. It was considered that 100% of the plasma LysoPC was converted to PC.\nFrom the results of Examples 2 and 3, the amount of LysoPC in deeper compartments could be estimated at about 95% of the total body LysoPCs, i.e., about 5% is present in the blood plasma.\nOn this basis, the amount of total body LysoPCs can be estimated to a minimum of 10 g. […]"}, "[7]": {"molecular_target": "albumin (Homo sapiens, UniProt P02768)", "sequence (P02768 25-609)": "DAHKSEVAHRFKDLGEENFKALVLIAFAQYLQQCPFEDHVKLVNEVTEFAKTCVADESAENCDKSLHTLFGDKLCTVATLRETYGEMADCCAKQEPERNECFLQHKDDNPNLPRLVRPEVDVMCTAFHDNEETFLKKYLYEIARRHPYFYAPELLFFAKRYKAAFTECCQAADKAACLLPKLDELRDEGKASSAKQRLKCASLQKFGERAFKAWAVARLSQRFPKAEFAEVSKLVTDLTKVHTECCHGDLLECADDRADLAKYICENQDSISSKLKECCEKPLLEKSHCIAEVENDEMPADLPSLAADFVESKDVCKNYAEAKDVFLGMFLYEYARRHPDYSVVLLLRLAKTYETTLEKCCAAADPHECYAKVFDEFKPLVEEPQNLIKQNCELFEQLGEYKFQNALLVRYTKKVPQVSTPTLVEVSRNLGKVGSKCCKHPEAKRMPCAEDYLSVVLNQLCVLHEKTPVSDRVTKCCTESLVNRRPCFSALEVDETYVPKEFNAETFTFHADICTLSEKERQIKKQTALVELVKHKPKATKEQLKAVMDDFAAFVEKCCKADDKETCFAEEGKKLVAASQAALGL", "conditions": "cited from earlier work"}, "[8]": {"conditions": "mice; cited from earlier work"}, "[9]": {"tested_on": "E. coli", "conditions": "mice, cited from earlier work"}, "[10]": {"conditions": "squirrel monkeys; cited from earlier work"}}, "note": "Read-outs that look alike come from different tables or passages of the source.", "data": [{"substance": "alpha-glycerophosphocholine [alpha-GPC]", "values": [{"measurement": "increase of plasma LysoPC level", "setting": "[1]; rise within 30 min after the first hour, then constant until end (2 hours)", "value": "about 20%"}, {"measurement": "change of plasma LysoPC level in the first hour", "setting": "[1]; starting level about 190 μM", "value": "did not change"}]}, {"substance": "triglycerides", "values": [{"measurement": "share of the consumed LysoPC amount (1700 mg) taken from the plasma", "setting": "[2]", "value": 3.9, "unit": "%"}]}, {"substance": "lyso-phosphatidylcholine [LysoPC]", "values": [{"measurement": "bacterial clearance", "setting": "[3]", "value": "improved"}, {"measurement": "survival, first sepsis model", "setting": "[3]; from 0%", "value": 69, "unit": "%"}, {"measurement": "survival, second sepsis model", "setting": "[3]; from 0%", "value": 40, "unit": "%"}, {"measurement": "IL1-β levels", "setting": "[4]; accompanying the protecting effects", "value": "reduction of the IL1-β levels"}, {"measurement": "effect of higher doses", "setting": "[4]; higher doses of up to 100 mg/kg", "value": "incapable or even harmful"}, {"measurement": "effect on damage to the organs and dysfunctions", "setting": "[4]; up to 10 mg/kg, i.v.", "value": "reduce the damage to the organs and dysfunctions significantly"}, {"measurement": "effect in the production of antigen-specific antibodies (adjuvant)", "setting": "[5]", "value": "identical to that of alum"}, {"measurement": "amount of total body LysoPCs", "setting": "[6]; for mean 300 μM and plasma volume about 3.5 liters (about 500 mg in plasma)", "value": "about 10 g"}, {"measurement": "proportion of total body LysoPC located in the blood plasma", "setting": "[6]; from Examples 2 and 3", "value": "4-5%"}, {"measurement": "daily conversion rate of LysoPC", "setting": "[6]; healthy subjects, based on estimated total body half life of 2.5 hours", "value": "about 50 g"}, {"measurement": "number of binding sites of albumin for LysoPC", "setting": "[7]", "value": "3-4"}, {"measurement": "share of plasma LysoPCs bound by albumin", "setting": "[7]; plasma", "value": "about 80%"}, {"measurement": "LysoPC half life", "setting": "[8]", "value": "about 4 hours"}, {"measurement": "survival", "setting": "[9]; E. coli sepsis, 20 mg/kg LysoPC s.c., from about 20%", "value": 90, "unit": "%"}, {"measurement": "duration of increased LysoPC level after a single injection", "setting": "[9]; single injection", "value": "about 4 hours"}, {"measurement": "LysoPC half life", "setting": "[10]", "value": 1.3, "unit": "h"}]}]}
